How the values were obtained:
CCR2 [1] = biological target: T1, CCR2 (Mus musculus, UniProt P51683); assay: Inhibition of radio-labeled mJE (CCL2) binding to WEHI-274 cells; conditions: WEHI-274 murine monocyte cell line endogenously expressing CCR2
T1 construct: WEHI-274 murine monocyte cell line that endogenously expresses CCR2; host or cells: WEHI-274.1
Method: (§1) Chemotaxis, calcium mobilization, and radio-ligand binding assays were conducted as previously described (Sullivan et al, 2013; Walters et al, 2010). Inhibition values (IC50) were calculated using non-linear regression with a one-site competition model (GraphPad Prism, GraphPad Software, La Jolla, Calif.). A2 values for assessment of potency in chemotaxis assays denotes the concentration of the antagonist required to right-shift by 2-fold the chemokine dose-response curve. […] Urinary albumin was measured by ELISA (Bethyl Labs, Montgomery, Tex.). Urinary and serum creatinine was measured by LC-MS/MS at ChemoCentryx. The urinary albumin excretion rate (UAER) was calculated as micrograms per 24 h. Blood urea nitrogen (BUN) was measured by Antech Diagnostics (Morrisville, N.C.). The albumin to creatinine ratio (ACR) was calculated as micrograms of albumin per milligram of creatinine.

[2] = Mouse pharmacokinetic (PK) study; type: in vivo; conditions: male, 129s, plasma, sc, mice, single s.c. injection at 90 mg/kg, 24 hours post-dosing
Method: Blood was drawn at 0.5, 2, […], 4, 8, 12, and 24 hours post-dosing. Compound 1 drug level was analyzed by LC-MS/MS at ChemoCentryx with plasma samples.
To determine if Compound 1 was suitable for in vivo experiments, we analyzed its pharmacokinetic profile in mice.

CCR2 [3] = biological target: T2, CCR2 (Homo sapiens, UniProt P41597); assay: CCR2 ThP1 Cell Chemotaxis; type: cell-based; conditions: read-out: Potency (IC50), CCR2
T2 construct: cell lines that either endogenously expressed certain chemokine receptors; host or cells: ThP1
Method: as §1

CCR1 = biological target: T3, CCR1 (Homo sapiens, UniProt P32246); assay: CCR1 Monocyte Chemotaxis; type: cell-based; conditions: read-out: Potency (IC50), CCR1
T3 construct: Human monocytes and neutrophils were isolated from healthy volunteers; host or cells: primary human monocytes
Method: as §1

CCR3 = biological target: T4, CCR3 (Homo sapiens, UniProt P51677); assay: 293-CCR3 Calcium Mobilization; type: cell-based; conditions: read-out: Potency (IC50), CCR3
T4 construct: expressed in transfected cells; host or cells: 293
Method: as §1

CCR4 = biological target: T5, CCR4 (Homo sapiens, UniProt P51679); assay: CCR4 Activated Lymphocyte Calcium Mobilization; type: cell-based; conditions: read-out: Potency (IC50), CCR4
T5 construct: endogenous in cells
Method: as §1

CCR6 = biological target: T6, CCR6 (Homo sapiens, UniProt P51684); assay: CCR6 Activated Lymphocyte Calcium Mobilization; type: cell-based; conditions: read-out: Potency (IC50), CCR6
T6 construct: endogenous in cells
Method: as §1

CCR7 = biological target: T7, CCR7 (Homo sapiens, UniProt P32248); assay: CCR7 Activated Lymphocyte Calcium Mobilization; type: cell-based; conditions: read-out: Potency (IC50), CCR7
T7 construct: endogenous in cells
Method: as §1

CCR8 = biological target: T8, CCR8 (Homo sapiens, UniProt P51685); assay: 293-CCR8 Calcium Mobilization; type: cell-based; conditions: read-out: Potency (IC50), CCR8
T8 construct: expressed in transfected cells; host or cells: 293
Method: as §1

CCR9 = biological target: T9, CCR9 (Homo sapiens, UniProt P51686); assay: CCR9 Molt4 Serum Chemotaxis; type: cell-based; conditions: read-out: Potency (IC50), CCR9
T9 construct: cell lines that either endogenously expressed certain chemokine receptors; endogenous in cells; host or cells: Molt4
Method: as §1

CCR10 = biological target: T10, CCR10 (Homo sapiens, UniProt P46092); assay: 293-CCR10 Calcium Mobilization; type: cell-based; conditions: read-out: Potency (IC50), CCR10
T10 construct: expressed in transfected cells; host or cells: 293
Method: as §1

CXCR1 = biological target: T11, CXCR1 (Homo sapiens, UniProt P25024); assay: CXCR1 Neutrophil Calcium Mobilization; type: cell-based; conditions: read-out: Potency (IC50), CXCR1
T11 construct: Human monocytes and neutrophils were isolated from healthy volunteers; host or cells: primary human neutrophils
Method: as §1

CXCR2 = biological target: T12, CXCR2 (Homo sapiens, UniProt P25025); assay: CXCR2 Neutrophil Calcium Mobilization; type: cell-based; conditions: read-out: Potency (IC50), CXCR2
T12 construct: Human monocytes and neutrophils were isolated from healthy volunteers; host or cells: primary human neutrophils
Method: as §1

CXCR3 = biological target: T13, CXCR3 (Homo sapiens, UniProt P49682); assay: CXCR3 Activated Lymphocyte Calcium Mobilization; type: cell-based; conditions: read-out: Potency (IC50), CXCR3
T13 construct: endogenous in cells
Method: as §1

CXCR4 = biological target: T14, CXCR4 (Homo sapiens, UniProt P61073); assay: CXCR4 Activated Lymphocyte Calcium Mobilization; type: cell-based; conditions: read-out: Potency (IC50), CXCR4
T14 construct: endogenous in cells
Method: as §1

CXCR5 = biological target: T15, CXCR5 (Homo sapiens, UniProt P32302); assay: Baf3-CXCR5 Calcium Mobilization; type: cell-based; conditions: read-out: Potency (IC50), CXCR5
T15 construct: expressed in transfected cells; host or cells: Baf3
Method: as §1

CXCR6 = biological target: T16, CXCR6 (Homo sapiens, UniProt O00574); assay: CXCR6 Activated Lymphocyte Buffer Chemotaxis; type: cell-based; conditions: read-out: Potency (IC50), CXCR6
T16 construct: endogenous in cells
Method: as §1

CXCR7 = biological target: T17, CXCR7 (Homo sapiens, UniProt P25106); assay: 293-CXCR7 Radio-ligand Binding; conditions: read-out: Potency (IC50), CXCR7
T17 construct: expressed in transfected cells; host or cells: 293
Method: as §1

C3aR = biological target: T18, C3aR (Homo sapiens, UniProt Q16581); assay: C3aR Neutrophil Calcium Mobilization; type: cell-based; conditions: read-out: Potency (IC50), C3aR
T18 construct: Human monocytes and neutrophils were isolated from healthy volunteers; host or cells: primary human neutrophils
Method: as §1

C5aR = biological target: T19, C5aR (Homo sapiens, UniProt P21730); assay: C5aR Neutrophil Calcium Mobilization; type: cell-based; conditions: read-out: Potency (IC50), C5aR
T19 construct: Human monocytes and neutrophils were isolated from healthy volunteers; host or cells: primary human neutrophils
Method: as §1

[4] = system: Adriamycin challenged mice; assay: Adriamycin induced FSGS model; type: in vivo; conditions: for UAER: Adriamycin nephropathy model, Compound 1 90 mg/kg s.c. once daily, RAAS blocker 5 mg/kg orally once daily
Method: These experiments were performed using female Balb/c mice (Jackson Laboratories, Bar Harbor, Me.). The mice were kept on standard chow and had free access to water. At age of 10 weeks, 7.5 mg/kg Adriamycin (Selleck Chemicals, Houston, Tex.) or saline (control) was injected via tail vein in isoflurane-anesthetized animals (day 0). […] The RAAS blocker Candesartan (AK Scientific, Union City, Calif.) and its vehicle were dosed orally once daily at 5 mg/kg, formulated in water. All dosing started 2 hours prior Adriamycin challenge. The mice were housed individually in metabolic cages for quantitative collection of urinary albumin and creatinine. Chemotaxis, calcium mobilization, and radio-ligand binding assays were conducted as previously described (Sullivan et al, 2013; Walters et al, 2010). Inhibition values (IC50) were calculated using non-linear regression with a one-site competition model (GraphPad Prism, GraphPad Software, La Jolla, Calif.). A2 values for assessment of potency in chemotaxis assays denotes the concentration of the antagonist required to right-shift by 2-fold the chemokine dose-response curve. […] Urinary albumin was measured by ELISA (Bethyl Labs, Montgomery, Tex.). Urinary and serum creatinine was measured by LC-MS/MS at ChemoCentryx. The urinary albumin excretion rate (UAER) was calculated as micrograms per 24 h. Blood urea nitrogen (BUN) was measured by Antech Diagnostics (Morrisville, N.C.). The albumin to creatinine ratio (ACR) was calculated as micrograms of albumin per milligram of creatinine. […] Adriamycin is an oncolytic antibiotic that induces proteinuria and glomerulosclerosis in rodents after a single infusion. […] The level of protection was equal to or better than that of RAAS blockade.

[5] = system: partially nephrectomized mice; assay: 5/6 nephrectomy model; type: in vivo; set-up: reduction in UACR / UACR reduction vs vehicle: concentration or dose not given beside the values; conditions: for UACR reduction vs vehicle: 5/6 nephrectomy model (Example 7, FIG. 8), week one; for reduction in UACR: mono-therapy
Method: (§2) 5/6 nephrectomy mice on the 129X1/SvJ background were obtained from Jackson Laboratories, and were received at ChemoCentryx after the surgery was performed at JAX. Under isoflurane anesthesia, two-thirds of the left kidney mass was removed at 5-6 weeks of age. Then, after 7 to 10 days, a right unilateral nephrectomy was performed. The mice were fed a standard chow and had free access to water. Three weeks after the 5/6 nephrectomy, the mice were grouped to ensure a similar starting UAER in each treatment group. […] The RAAS blocker candesartan (AK Scientific, Union City, Calif.) and its vehicle were dosed orally once daily at 5 mg/kg formulated in water. Sparsentan, the dual-acting receptor antagonist for endothelin (A type) and angiotensin II receptors (Type 1) (Murugesan et al, 2005) was synthesized at ChemoCentryx and was dosed orally twice daily at 90 mg/kg formulated in 1% HPMC. The mice were housed individually in metabolic cages for quantitative collection of urinary albumin and creatinine.
as §1
To corroborated the above findings, another FSGS model mechanistically distinct from the Adriamycin approach was tested, the 5/6 nephrectomy model. Beginning three weeks after the completion of surgery, the mice were treated with Compound 1 or RAAS blocker either alone or in combination. As above, renal function was quantified by measuring the UACR, UAER serum creatinine and BUN levels.

[6] = system: kidneys of 5/6 nephrectomized mice; assay: Histological analysis of kidneys from the 5/6 nephrectomy model; type: in vivo
Method: as §2, with “Sparsentan, the dual-acting receptor antagonist for endothelin (A type) and angiotensin II receptors (Type 1) (Murugesan et al, 2005) was synthesized at ChemoCentryx and was dosed orally twice daily at 90 mg/kg formulated in 1% HPMC.” left out
The kidneys were collected, fixed in formalin, embedded in paraffin, and cut into 5-μm-thick sections. […] Glomerular hypertrophy, mesangial expansion, glomerular sclerosis, and tubular structure were determined by examination of sections by an observer blinded to the treatment groups.
Fixed kidney sections were obtained from 5/6 nephrectomized mice for pathology. The sections were stained and evaluated to determine whether the Compound 1-mediated improvements in renal function were associated with anatomical changes.

[7] = 5/6 nephrectomy model (Table 3), Week 1, Compound 1 90 mg/kg, RAAS Blocker 5 mg/kg
[8] = 5/6 nephrectomy model (Table 3), Week 2, Compound 1 90 mg/kg, RAAS Blocker 5 mg/kg
[9] = 5/6 nephrectomy model (Table 3), Week 3, Compound 1 90 mg/kg, RAAS Blocker 5 mg/kg
[10] = 5/6 nephrectomy model, comparison with ET1/AT2 dual inhibitor (Table 4), Week 1
[11] = 5/6 nephrectomy model, comparison with ET1/AT2 dual inhibitor (Table 4), Week 2
[12] = 5/6 nephrectomy model, comparison with ET1/AT2 dual inhibitor (Table 4), Week 4

T19 sequence (P21730 whole entry): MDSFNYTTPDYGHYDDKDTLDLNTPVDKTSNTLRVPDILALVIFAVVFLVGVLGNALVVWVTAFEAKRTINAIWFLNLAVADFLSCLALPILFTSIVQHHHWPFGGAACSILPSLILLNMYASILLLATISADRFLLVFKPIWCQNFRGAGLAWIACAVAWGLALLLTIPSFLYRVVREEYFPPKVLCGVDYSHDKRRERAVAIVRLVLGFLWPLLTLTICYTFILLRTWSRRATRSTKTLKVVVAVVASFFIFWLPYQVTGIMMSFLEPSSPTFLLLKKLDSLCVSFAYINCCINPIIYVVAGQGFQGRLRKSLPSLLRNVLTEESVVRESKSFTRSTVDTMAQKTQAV
T18 sequence (Q16581 whole entry): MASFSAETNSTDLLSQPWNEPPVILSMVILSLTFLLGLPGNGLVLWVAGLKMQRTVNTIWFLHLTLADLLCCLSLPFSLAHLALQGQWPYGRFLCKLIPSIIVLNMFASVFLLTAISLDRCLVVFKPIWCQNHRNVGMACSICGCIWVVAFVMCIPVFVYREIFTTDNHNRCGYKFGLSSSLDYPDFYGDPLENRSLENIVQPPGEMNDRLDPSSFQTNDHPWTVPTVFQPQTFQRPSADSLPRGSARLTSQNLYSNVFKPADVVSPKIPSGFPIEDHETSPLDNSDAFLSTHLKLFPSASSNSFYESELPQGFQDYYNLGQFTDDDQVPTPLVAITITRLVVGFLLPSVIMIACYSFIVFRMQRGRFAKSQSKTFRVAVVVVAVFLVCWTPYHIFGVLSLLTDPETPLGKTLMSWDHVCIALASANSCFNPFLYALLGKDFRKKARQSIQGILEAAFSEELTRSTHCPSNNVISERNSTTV
T9 sequence (P51686 whole entry): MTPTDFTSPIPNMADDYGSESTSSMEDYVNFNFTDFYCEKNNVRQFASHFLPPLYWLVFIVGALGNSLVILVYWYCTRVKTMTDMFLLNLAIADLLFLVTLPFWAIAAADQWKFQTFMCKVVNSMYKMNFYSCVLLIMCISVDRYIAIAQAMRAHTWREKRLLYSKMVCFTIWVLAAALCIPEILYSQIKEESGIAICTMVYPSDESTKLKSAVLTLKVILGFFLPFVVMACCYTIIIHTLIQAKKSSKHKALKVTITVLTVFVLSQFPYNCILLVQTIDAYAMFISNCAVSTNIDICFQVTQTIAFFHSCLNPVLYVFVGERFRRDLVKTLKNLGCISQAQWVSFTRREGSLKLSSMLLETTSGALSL
T6 sequence (P51684 whole entry): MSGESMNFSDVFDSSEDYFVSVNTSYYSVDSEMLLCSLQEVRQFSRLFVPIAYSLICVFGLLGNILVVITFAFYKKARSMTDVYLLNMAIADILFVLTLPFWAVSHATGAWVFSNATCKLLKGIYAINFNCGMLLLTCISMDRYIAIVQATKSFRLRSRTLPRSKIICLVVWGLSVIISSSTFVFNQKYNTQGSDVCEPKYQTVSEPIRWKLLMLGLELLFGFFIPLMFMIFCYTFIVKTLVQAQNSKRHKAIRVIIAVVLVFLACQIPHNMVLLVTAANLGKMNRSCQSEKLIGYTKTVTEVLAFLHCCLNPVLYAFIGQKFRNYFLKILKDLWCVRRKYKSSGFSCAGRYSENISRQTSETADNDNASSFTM
T10 sequence (P46092 whole entry): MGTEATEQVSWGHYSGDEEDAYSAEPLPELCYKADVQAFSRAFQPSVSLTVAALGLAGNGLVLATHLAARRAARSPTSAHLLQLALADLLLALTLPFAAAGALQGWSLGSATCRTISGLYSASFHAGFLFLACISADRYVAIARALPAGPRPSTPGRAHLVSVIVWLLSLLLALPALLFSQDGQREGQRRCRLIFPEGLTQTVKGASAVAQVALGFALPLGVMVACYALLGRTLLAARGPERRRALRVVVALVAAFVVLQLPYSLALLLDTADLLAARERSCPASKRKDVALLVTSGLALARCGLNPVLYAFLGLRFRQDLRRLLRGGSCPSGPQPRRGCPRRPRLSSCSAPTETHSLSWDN
T11 sequence (P25024 whole entry): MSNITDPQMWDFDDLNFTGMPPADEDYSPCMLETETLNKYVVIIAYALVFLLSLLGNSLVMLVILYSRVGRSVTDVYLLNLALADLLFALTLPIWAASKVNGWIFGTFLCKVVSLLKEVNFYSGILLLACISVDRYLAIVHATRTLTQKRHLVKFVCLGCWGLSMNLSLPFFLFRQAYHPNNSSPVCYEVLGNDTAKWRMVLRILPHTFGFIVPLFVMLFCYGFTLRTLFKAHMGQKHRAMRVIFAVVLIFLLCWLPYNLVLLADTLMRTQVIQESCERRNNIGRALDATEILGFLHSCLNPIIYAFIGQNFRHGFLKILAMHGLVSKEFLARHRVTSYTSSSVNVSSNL
T2 sequence (P41597 1-360 isoform P41597-2): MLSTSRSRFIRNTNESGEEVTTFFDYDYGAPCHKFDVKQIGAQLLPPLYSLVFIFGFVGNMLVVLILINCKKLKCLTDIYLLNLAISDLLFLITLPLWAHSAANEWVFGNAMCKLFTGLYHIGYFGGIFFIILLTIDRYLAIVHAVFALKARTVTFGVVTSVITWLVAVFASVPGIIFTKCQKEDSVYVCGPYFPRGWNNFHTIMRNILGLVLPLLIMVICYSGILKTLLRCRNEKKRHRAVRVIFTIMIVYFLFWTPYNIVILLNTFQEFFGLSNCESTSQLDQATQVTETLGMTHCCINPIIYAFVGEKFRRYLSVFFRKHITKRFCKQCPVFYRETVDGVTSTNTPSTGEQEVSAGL
T14 sequence (P61073 whole entry): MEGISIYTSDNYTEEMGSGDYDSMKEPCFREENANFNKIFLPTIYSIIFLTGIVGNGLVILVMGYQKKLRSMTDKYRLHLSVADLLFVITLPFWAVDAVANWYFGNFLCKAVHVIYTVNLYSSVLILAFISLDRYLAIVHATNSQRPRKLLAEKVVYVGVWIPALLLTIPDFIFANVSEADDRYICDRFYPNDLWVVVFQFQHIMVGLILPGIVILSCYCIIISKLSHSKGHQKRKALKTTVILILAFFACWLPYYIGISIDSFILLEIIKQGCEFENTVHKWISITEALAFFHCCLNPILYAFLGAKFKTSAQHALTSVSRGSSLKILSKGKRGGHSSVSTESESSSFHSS
T7 sequence (P32248 25-378): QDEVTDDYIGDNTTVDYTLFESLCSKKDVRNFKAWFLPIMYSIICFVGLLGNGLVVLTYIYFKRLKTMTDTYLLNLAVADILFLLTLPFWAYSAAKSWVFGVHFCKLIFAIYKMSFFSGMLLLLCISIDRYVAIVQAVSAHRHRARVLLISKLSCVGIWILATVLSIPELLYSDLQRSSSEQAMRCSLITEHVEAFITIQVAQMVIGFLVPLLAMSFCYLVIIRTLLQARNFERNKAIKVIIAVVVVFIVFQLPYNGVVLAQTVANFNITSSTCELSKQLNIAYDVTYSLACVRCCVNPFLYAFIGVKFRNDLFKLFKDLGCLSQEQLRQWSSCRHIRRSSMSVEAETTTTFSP
T15 sequence (P32302 whole entry): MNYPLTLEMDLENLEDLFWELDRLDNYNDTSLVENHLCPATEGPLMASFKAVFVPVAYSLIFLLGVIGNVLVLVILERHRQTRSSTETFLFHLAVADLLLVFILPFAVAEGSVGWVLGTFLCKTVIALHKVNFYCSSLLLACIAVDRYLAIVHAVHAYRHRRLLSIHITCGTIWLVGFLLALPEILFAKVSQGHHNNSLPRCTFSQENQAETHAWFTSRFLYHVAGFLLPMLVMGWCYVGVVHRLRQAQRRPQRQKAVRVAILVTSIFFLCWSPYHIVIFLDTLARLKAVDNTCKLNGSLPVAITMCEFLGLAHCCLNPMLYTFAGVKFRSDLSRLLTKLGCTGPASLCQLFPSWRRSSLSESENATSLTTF
T4 sequence (P51677 whole entry): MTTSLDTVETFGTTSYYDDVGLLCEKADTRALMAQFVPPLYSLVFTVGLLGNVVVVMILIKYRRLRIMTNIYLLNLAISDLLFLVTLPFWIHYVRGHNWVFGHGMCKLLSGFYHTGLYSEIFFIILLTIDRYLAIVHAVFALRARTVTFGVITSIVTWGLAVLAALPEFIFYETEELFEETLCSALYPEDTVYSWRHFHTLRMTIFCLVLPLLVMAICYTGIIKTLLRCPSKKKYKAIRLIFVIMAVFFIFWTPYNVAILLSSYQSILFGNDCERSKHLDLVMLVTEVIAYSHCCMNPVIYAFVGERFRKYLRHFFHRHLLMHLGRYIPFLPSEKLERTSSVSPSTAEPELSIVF
T16 sequence (O00574 whole entry): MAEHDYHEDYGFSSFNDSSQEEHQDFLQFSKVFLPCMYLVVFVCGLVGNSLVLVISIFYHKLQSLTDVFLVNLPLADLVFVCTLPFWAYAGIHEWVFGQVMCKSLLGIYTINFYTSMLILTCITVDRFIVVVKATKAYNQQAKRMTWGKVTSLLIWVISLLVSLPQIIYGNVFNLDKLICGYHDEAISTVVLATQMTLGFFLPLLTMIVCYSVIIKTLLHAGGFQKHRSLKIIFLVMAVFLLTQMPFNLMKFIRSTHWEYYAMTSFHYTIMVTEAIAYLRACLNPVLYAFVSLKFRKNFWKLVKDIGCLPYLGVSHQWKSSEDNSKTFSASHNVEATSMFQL
T8 sequence (P51685 whole entry): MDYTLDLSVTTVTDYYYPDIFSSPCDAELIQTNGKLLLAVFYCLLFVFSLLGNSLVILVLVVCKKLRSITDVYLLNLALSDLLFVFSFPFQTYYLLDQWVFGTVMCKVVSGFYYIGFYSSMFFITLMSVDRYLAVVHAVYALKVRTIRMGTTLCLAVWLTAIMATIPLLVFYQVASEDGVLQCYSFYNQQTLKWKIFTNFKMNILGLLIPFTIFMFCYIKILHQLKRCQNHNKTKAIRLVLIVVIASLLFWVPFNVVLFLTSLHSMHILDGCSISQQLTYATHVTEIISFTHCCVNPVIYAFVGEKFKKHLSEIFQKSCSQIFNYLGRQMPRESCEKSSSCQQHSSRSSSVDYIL

Cc1cnc(C(=O)c2ccnc3[nH]ccc23)c(NS(=O)(=O)c2ccc(Cl)c(C(F)(F)F)c2)c1 [Compound 1]
IC50 (CCR2 [1]): 0.27 µM | concentration at 24 h [2]: ~3.5 µM | IC50 (CCR2 [3]): 0.0005 µM | IC50 (CCR1): > 10 µM | IC50 (CCR3): > 10 µM | IC50 (CCR4): > 10 µM | IC50 (CCR6): > 8 µM | IC50 (CCR7): > 10 µM | IC50 (CCR8): > 10 µM | IC50 (CCR9): > 10 µM | IC50 (CCR10): > 10 µM | IC50 (CXCR1): > 10 µM | IC50 (CXCR2): > 10 µM | IC50 (CXCR3): > 10 µM | IC50 (CXCR4): > 10 µM | IC50 (CXCR5): > 10 µM | IC50 (CXCR6): > 10 µM | IC50 (CXCR7): > 10 µM | IC50 (C3aR): > 10 µM | IC50 (C5aR): > 10 µM | UAER ([4]; Week 1): 26.15, p = 0.06 mg/day | UAER ([4]; Week 2): 24.19, p = 0.032 mg/day | UAER, in words ([4]; Adriamycin treated mice): significant reduction | UACR reduction vs vehicle [5]: 64.8% | UAER [5, 7]: 15.68, p = 0.30 mg/day | UAER [5, 8]: 6.72, p = 0.07 mg/day | UAER [5, 9]: 11.75, p = 0.001 mg/day | UAER [5, 10]: 7.1, p = 0.07 mg/day | UAER [5, 11]: 11.0, p = 0.1 mg/day | UAER [5, 12]: 2.8, p = 0.02 mg/day | UACR, in words ([5]; 5/6 nephrectomy model, four-week study): markedly reduced | reduction in UACR ([5]; 5/6 nephrectomy model, week four): 57% | reduction in UACR ([5]; 5/6 nephrectomy model, week three): 72% | creatinine and BUN, in words ([5]; 5/6 nephrectomy model, with respect to vehicle control, four-week time point): marked reductions | kidney histology at 400× magnification (glomeruli), in words [6]: decreased glomerular sclerosis, mesangial expansion, hyaline deposits and tubular collapse | kidney histology at 100× magnification, in words ([6]; with respect to vehicle control): reductions in tubular dilation and hyaline deposits

CCCCC1=NC2(CCCC2)C(=O)N1Cc1ccc(-c2ccccc2S(=O)(=O)Nc2noc(C)c2C)c(COCC)c1 [ET1/AT2 Dual Blocker, Sparsentan, reference compound]
UACR reduction vs vehicle [5]: 93.5% | UAER [5, 10]: 2.6, p = 0.036 mg/day | UAER [5, 11]: 1.5, p = 0.01 mg/day | UAER [5, 12]: 1.15, p = 0.001 mg/day

CCOc1nc2cccc(C(=O)O)c2n1Cc1ccc(-c2ccccc2-c2nnn[nH]2)cc1 [RAAS Blocker, Candesartan, reference compound]
UAER ([4]; Week 1): 39.46, p = 0.16 mg/day | UAER ([4]; Week 2): 66.87 mg/day | UACR reduction vs vehicle [5]: 73.4% | UAER [5, 7]: 8.27, p = 0.03 mg/day | UAER [5, 8]: 3.62, p = 0.03 mg/day | UAER [5, 9]: 3.32, p < 0.0001 mg/day | UAER [5, 10]: 9.4, p = 0.27 mg/day | UAER [5, 11]: 7.7, p = 0.06 mg/day | UAER [5, 12]: 1.7, p = 0.02 mg/day
